Data on six molecules can be found in ChEMBL document CHEMBL4420072, “Method for screening anti-cancer compounds inhibiting function of TM4SF5 and anti-cancer composition containing chalcone compounds” (2013).

In brackets after ≈: the same amount, converted by molar mass. Activity calls are given as the source filed them. The calls are words filed in the database; no cut-off is given here.

The target in data set [1] is T1, Transmembrane 4 L6 family member 5 (Homo sapiens) (UniProt O14894).
T1 sequence (whole entry): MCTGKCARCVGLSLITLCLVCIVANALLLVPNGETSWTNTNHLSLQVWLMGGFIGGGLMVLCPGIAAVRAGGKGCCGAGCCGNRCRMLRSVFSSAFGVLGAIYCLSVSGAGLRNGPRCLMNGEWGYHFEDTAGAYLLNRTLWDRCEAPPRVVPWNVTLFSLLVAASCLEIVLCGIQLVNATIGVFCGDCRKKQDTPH
Nature of the data set: Inhibition of TM4SF5 in human SNU449Tp cells assessed as effect on cell morphology at 20 uM incubated for 24 hrs by optical microscopy. Format: cell-based.

In data set [2] the target is T1, Transmembrane 4 L6 family member 5 (Homo sapiens). Nature of the data set: Activation of TM4SF5 in human SNU449Tp cells in monolayer arrangement assessed as effect on cell morphology at 20 uM incubated for 24 hrs by optical microscopy. Format: cell-based.
The target is the same in data set [3]. Nature of the data set: Activation of TM4SF5 in human SNU449Tp cells in multilayer arrangement assessed as stimulation of cell growth at 20 uM incubated for 24 hrs by optical microscopy. It counts as cell-based.
For data set [4] the target is unchanged. The data set can be described thus: Activation of TM4SF5 in human SNU449Tp cells in monolayer arrangement assessed as stimulation of cell growth at 20 uM incubated for 24 hrs by optical microscopy. Format: cell-based.
The next data set concerns HCT-15. Nature of the data set: Cytotoxicity against human HCT15 cells assessed as reduction in cell viability by SRB assay. It counts as functional. The note with it: read-out: ED50 (the source's name).
A further data set concerns A549. Nature of the data set: Cytotoxicity against human A549 cells assessed as reduction in cell viability by SRB assay. The following applies: read-out: ED50 (the source's name). Format: functional.
The next data set has as its system PC-3. The data set can be described thus: Cytotoxicity against human PC3 cells assessed as reduction in cell viability by SRB assay. Format: functional. The note with it: read-out: ED50 (the source's name).
In data set [5] the target is T1, Transmembrane 4 L6 family member 5 (Homo sapiens). The data set can be described thus: Inhibition of TM4SF5 in human SNU449Tp cells assessed as reduction in pY77 FAK expression by Western blotting analysis. Format: cell-based.
Data set [6] shares this target. Nature of the data set: Inhibition of TM4SF5 in human SNU449Tp cells assessed as reduction in pS10 p27Kip1 expression by Western blotting analysis. Format: cell-based.
Data set [7] has the same target. The data set can be described thus: Inhibition of TM4SF5 in human SNU449Tp cells assessed as restoration of cell-cell contact at 20 uM by E-cadherin and beta-catenin detection based immunofluorescent staining.
The target is the same in data set [8]. The data set can be described thus: Inhibition of TM4SF5 in human HuH7 cells assessed as reduction in cell number at 1 to 20 ug/ml incubated up to 3 days. It counts as cell-based.
Data set [9] has the same target. The data set can be described thus: Inhibition of TM4SF5 in human SNU449Tp cells assessed as restoration of reduced RhoA activity. It counts as cell-based.
For data set [10] the target is unchanged. The data set can be described thus: Inhibition of TM4SF5 in human SNU449Tp cells assessed as reduction in MMP2 activity gel at 20 uM incubated for 24 hrs followed by medium exchange with serum-free medium and further incubated for 18 hrs by zymography. Format: cell-based.
Data set [11] has the same target. The data set can be described thus: Inhibition of TM4SF5 in human SNU449Tp cells assessed as reduction in cell migration at 20 uM incubated for 18 hrs by Transwell chamber based assay.
Data set [12] has the same target. Nature of the data set: Inhibition of TM4SF5 in human SNU449Tp cells assessed as increase in sensitivity of N-linked glycosylated region of TM4SF5 to PNGase F. Format: cell-based.
For data set [13] the target is unchanged. Nature of the data set: Inhibition of TM4SF5 in human SNU449Tp cells assessed as reduction in p27Kip1 expression by Western blotting analysis. It counts as cell-based.
For data set [14] the target is unchanged. Nature of the data set: Inhibition of TM4SF5 in human SNU449Tp cells assessed as reduction in alpha-SMA expression by Western blotting analysis. Format: cell-based.
Data set [15] in a line: Growth inhibition of TM4SF5 deficient human SNU449Cp cells assessed as reduction in cell number at 5 to 40 uM incubated up to 2 days. The note with it: 48 h.
For data set [16], the target named is T1, Transmembrane 4 L6 family member 5 (Homo sapiens). The data set can be described thus: Inhibition of TM4SF5 in human SNU449Tp cells assessed as reduction in cell invasion into collagen gel matrix at 20 uM incubated for 18 hrs. Format: cell-based.
Data set [17] has the same target. Nature of the data set: Inhibition of TM4SF5 in human HepG2 cells assessed as reduction in cell number at 1 to 20 ug/ml incubated up to 3 days. Format: cell-based.
For data set [18] the target is unchanged. The data set can be described thus: Inhibition of TM4SF5 in human SNU449Tp cells assessed as reduction in cell invasion into Matrigel gel matrix at 20 uM incubated for 24 hrs. It counts as cell-based.
The target is the same in data set [19]. The data set can be described thus: Inhibition of TM4SF5 in human SNU449Tp cells assessed as reduction in MMP9 activity gel at 20 uM incubated for 24 hrs followed by medium exchange with serum-free medium and further incubated for 18 hrs by zymography. It counts as cell-based.
For data set [20] the target is unchanged. Nature of the data set: Inhibition of TM4SF5 in human SNU368 cells assessed as reduction in cell number at 1 to 20 ug/ml incubated up to 3 days. Format: cell-based.
Data set [21] shares this target. The data set can be described thus: Inhibition of TM4SF5 in human SNU449Tp cells assessed as reduction in cytosolic p27Kip1 expression by immunofluorescent staining. It counts as cell-based.
In the next data set the test system is SNU-398. Nature of the data set: Growth inhibition of TM4SF5 deficient human SNU398 cells assessed as reduction in cell number at 1 to 20 ug/ml incubated up to 3 days. It counts as cell-based. The note with it: snu-398, 72 h.
The target in data set [22] is T1, Transmembrane 4 L6 family member 5 (Homo sapiens). The data set can be described thus: Inhibition of TM4SF5 in human SNU449Tp cells assessed as induction of return of elongated cell shape to polygonal shape by DAPI staining based assay.
The target is the same in data set [23]. The data set can be described thus: Inhibition of TM4SF5 in human SNU449Tp cells assessed as inhibition of S-phase progression at 20 uM followed by BrdU addition and incubated for 24 hrs by immunofluorescent staining. It counts as cell-based.

On to `Nc1ccc(C(=O)/C=C/c2ccc(O)cc2)cc1`, for which, in data set [1], the “cell morphology effect (active/not active)” value was “inactive”. For the same molecule, the result in [2] and in data set [4] was Active. Moreover, the outcome in data set [3] was inactive.
As to `Cc1ccc(S(=O)(=O)Oc2ccc(C(=O)/C=C/c3ccc(O)cc3O)cc2)cc1`, the EC50 in the data set with HCT-15 came to 8 µg/mL (≈ 19.5 µM); with A549, 10 µg/mL (≈ 24.4 µM).
Consider `COc1ccc(C(=O)/C=C/c2ccc(O)cc2)cc1`, for which the “cell morphology effect (active/not active)” value in [1] was “inactive”. Also, the result in data set [2] and in data set [4] was Active. Also, the result in data set [3] was inactive.
As to `O=C(/C=C/c1ccc(O)c(O)c1)c1ccc(OS(=O)(=O)c2cccc(F)c2)cc1`, the EC50 in the data set with HCT-15 worked out at 7 µg/mL (≈ 16.9 µM); in the data set on PC-3, 8 µg/mL (≈ 19.3 µM).
Regarding `Cc1ccc(S(=O)(=O)Nc2ccc(C(=O)/C=C/c3ccc(O)cc3)cc2)cc1`, the inhibition entry in [5], in [6], in [7], in data set [8], in [9] and in [10] was “Active” throughout. The inhibition entry in data set [11], in data set [12], in [13], in data set [14], in data set [16] and in data set [17] was “Active” each time. Also, the inhibition result in [18], in data set [19], in [20], in data set [21], in data set [22] and in data set [23] was “Active” in each case. Further, the “cell morphology effect (active/not active)” value in data set [1] is “Active”. For the same molecule, the “growth inhibition (GI)” value (in [15]; in the data set with SNU-398) was “Non-Toxic” in each case.
Turning to `O=C(/C=C/c1ccc(O)cc1)c1ccc(O)cc1`, in data set [1], the “cell morphology effect (active/not active)” value was “inactive”. Further, the result in data set [2] and in data set [4] was Active. Also, the outcome in [3] was inactive.
